For 12 compounds, IC50 results are on record in BindingDB's records for doi:10.1016/s0960-894x(02)00682-0 (Bristol-Myers Squibb Pharmaceutical Research Institute, 2002).

In general, IC50 refers to the concentration at which inhibition is half-maximal. A low value points to greater potency in that assay.

Structures are written as SMILES. Peptide text beside a SMILES is read from it. * marks the point of attachment. X11 = CCCCCC[C@H](N*)B1O[C@@H]2C[C@@H]3C[C@@H](C3(C)C)[C@]2(C)O1; X14 = CCCC[C@H](N*)B1O[C@@H]2C[C@@H]3C[C@@H](C3(C)C)[C@]2(C)O1

Assay [1] is described as follows: Inhibitory concentration against Human pancreatic Serine protease chymotrypsin.
The target of assay [2] is T1, Chymotrypsin-C (Homo sapiens, UniProt Q99895).
T1 sequence (Q99895 whole entry): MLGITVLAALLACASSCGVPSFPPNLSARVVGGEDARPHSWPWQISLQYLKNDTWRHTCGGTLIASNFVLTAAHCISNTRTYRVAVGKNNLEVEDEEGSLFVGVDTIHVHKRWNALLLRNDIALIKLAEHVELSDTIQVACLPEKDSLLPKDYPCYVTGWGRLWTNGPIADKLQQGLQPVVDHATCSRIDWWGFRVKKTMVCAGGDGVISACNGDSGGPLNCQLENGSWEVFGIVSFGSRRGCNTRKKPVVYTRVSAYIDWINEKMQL
Put plainly: ChEBML_197808. The source says:
(§1) Inhibitory concentration against Human pancreatic Serine protease chymotrypsin

For assay [3], the target named is T1, Chymotrypsin-C. The description is as §1.

The compound `CC(C)[C@H](NC(=O)[C@H](CCC(=O)O)NC(=O)[C@@H](N)CC(=O)O)C(=O)N[C@H](C(=O)N1CCC[C@H]1C(=O)N[C@@H](CCc1ccc(C2CCCCC2)cc1)B1O[C@@H]2C[C@@H]3C[C@@H](C3(C)C)[C@]2(C)O1)C(C)C` [Peptide Boronic Acid analogue] displayed a concentration for half-maximal inhibition (IC50) in assay [1] above 60 µM. The same measure, in the same setting: for `CC(C)c1ccc(CC[C@H](NC(=O)[C@@H]2CCCN2C(=O)[C@@H](NC(=O)[C@@H](NC(=O)[C@H](CCC(=O)O)NC(=O)[C@@H](N)CC(=O)O)C(C)C)C(C)C)B2O[C@@H]3C[C@@H]4C[C@@H](C4(C)C)[C@]3(C)O2)cc1` [Peptide Boronic Acid analogue] the value was above 60 µM.

The compound `CC(C)[C@H](NC(=O)[C@H](CCC(=O)O)NC(=O)[C@@H](N)CC(=O)O)C(=O)N[C@H](C(=O)N1CCC[C@H]1C(=O)N[C@@H](CCc1ccc(-c2ccccc2)cc1)B1O[C@@H]2C[C@@H]3C[C@@H](C3(C)C)[C@]2(C)O1)C(C)C` [Peptide Boronic Acid analogue] showed an IC50 against Chymotrypsin-C [2] of 48 µM.

At Chymotrypsin-C [3], `CC(C)[C@H](NC(=O)[C@H](CCC(=O)O)NC(=O)[C@@H](N)CC(=O)O)C(=O)N[C@H](C(=O)N1CCC[C@H]1C(=O)N[C@@H](CCc1ccc(C(F)(F)F)cc1)B1O[C@@H]2C[C@@H]3C[C@@H](C3(C)C)[C@]2(C)O1)C(C)C` [Peptide Boronic Acid analogue] had an IC50 of 16 µM. For the compound `CC(C)[C@H](NC(=O)[C@H](CCC(=O)O)NC(=O)[C@@H](N)CC(=O)O)C(=O)N[C@H](C(=O)N1CCC[C@H]1C(=O)N[C@@H](CCc1ccc(C(C)(C)C)cc1)B1O[C@@H]2C[C@@H]3C[C@@H](C3(C)C)[C@]2(C)O1)C(C)C` [Peptide Boronic Acid analogue], the 50% inhibitory concentration (IC50) in assay [1] is above 60 µM. On the same count and under the same terms, to `COc1ccc(CC[C@H](NC(=O)[C@@H]2CCCN2C(=O)[C@@H](NC(=O)[C@@H](NC(=O)[C@H](CCC(=O)O)NC(=O)[C@@H](N)CC(=O)O)C(C)C)C(C)C)B2O[C@@H]3C[C@@H]4C[C@@H](C4(C)C)[C@]3(C)O2)cc1` [Peptide Boronic Acid analogue] belongs 20 µM. Take `CC(C)[C@H](NC(=O)[C@H](CCC(=O)O)NC(=O)[C@@H](N)CC(=O)O)C(=O)N[C@H](C(=O)N1CCC[C@H]1C(=O)N[C@@H](CCCCc1ccccc1)B1O[C@@H]2C[C@@H]3C[C@@H](C3(C)C)[C@]2(C)O1)C(C)C` [Peptide Boronic Acid analogue]: it took 1.9 µM to reach half-maximal inhibition on Chymotrypsin-C [3] (IC50).

For the compound `CCCC[C@H](NC(=O)[C@@H]1CCCN1C(=O)[C@@H](NC(=O)[C@@H](NC(=O)[C@H](CCC(=O)O)NC(=O)[C@@H](N)CC(=O)O)C(C)C)C(C)C)B1O[C@@H]2C[C@@H]3C[C@@H](C3(C)C)[C@]2(C)O1` [Peptide Boronic Acid analogue] (H-DEVVP-X14), half-maximal inhibition against Chymotrypsin-C [3] (IC50) was put at 2.1 µM. The compound `CC(C)[C@H](NC(=O)[C@H](CCC(=O)O)NC(=O)[C@@H](N)CC(=O)O)C(=O)N[C@H](C(=O)N1CCC[C@H]1C(=O)N[C@@H](CCc1ccc(Oc2ccccc2)cc1)B1O[C@@H]2C[C@@H]3C[C@@H](C3(C)C)[C@]2(C)O1)C(C)C` [Peptide Boronic Acid analogue] yielded a concentration for half-maximal inhibition (IC50) in assay [1] above 60 µM.

The compound `Cc1ccc(CC[C@H](NC(=O)[C@@H]2CCCN2C(=O)[C@@H](NC(=O)[C@@H](NC(=O)[C@H](CCC(=O)O)NC(=O)[C@@H](N)CC(=O)O)C(C)C)C(C)C)B2O[C@@H]3C[C@@H]4C[C@@H](C4(C)C)[C@]3(C)O2)cc1` [Peptide Boronic Acid analogue] had an IC50 on Chymotrypsin-C [3] of 3.7 µM. For the compound `CC[C@H](NC(=O)[C@@H]1CCCN1C(=O)[C@@H](NC(=O)[C@@H](NC(=O)[C@H](CCC(=O)O)NC(=O)[C@@H](N)CC(=O)O)C(C)C)C(C)C)B1O[C@@H]2C[C@@H]3C[C@@H](C3(C)C)[C@]2(C)O1` [Peptide Boronic Acid analogue], on Chymotrypsin-C [3], the IC50 was above 60 µM. As to `CCCCCC[C@H](NC(=O)[C@@H]1CCCN1C(=O)[C@@H](NC(=O)[C@@H](NC(=O)[C@H](CCC(=O)O)NC(=O)[C@@H](N)CC(=O)O)C(C)C)C(C)C)B1O[C@@H]2C[C@@H]3C[C@@H](C3(C)C)[C@]2(C)O1` [Peptide Boronic Acid analogue] (H-DEVVP-X11), at Chymotrypsin-C [3], half-maximal inhibition (IC50) was put at 0.42 µM.
